Experimental data published in patent US20240208992A1, “MACROCYCLES AS CFTR MODULATORS” (Idorsia Pharmaceuticals Ltd, priority 2021, published 2024).

Target: human F508del-CFTR (Homo sapiens, UniProt P13569, DEL508-508)
Assay: F508del-CFTR cell surface expression (corrector activity), DiscoveRx ß-galactosidase complementation chemiluminescence assay in recombinant U2OS cell line;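 also: U2OS cells co-expressing ProLink-tagged F508del-CFTR and a membrane-anchored enzyme acceptor, where more surface CFTR restores β-galactosidase activity measured by chemiluminescence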
Details: for EC50: EC50, F508del-CFTR cell surface expression, U2OS cells, 16h compound incubation, geomean values; for Emax: U2OS, in relation to Emax of corrector lumacaftor (=100%), arithmetic mean values

human F508del-CFTR, sequence (P13569 with tags, fused parts or gaps DEL508-508): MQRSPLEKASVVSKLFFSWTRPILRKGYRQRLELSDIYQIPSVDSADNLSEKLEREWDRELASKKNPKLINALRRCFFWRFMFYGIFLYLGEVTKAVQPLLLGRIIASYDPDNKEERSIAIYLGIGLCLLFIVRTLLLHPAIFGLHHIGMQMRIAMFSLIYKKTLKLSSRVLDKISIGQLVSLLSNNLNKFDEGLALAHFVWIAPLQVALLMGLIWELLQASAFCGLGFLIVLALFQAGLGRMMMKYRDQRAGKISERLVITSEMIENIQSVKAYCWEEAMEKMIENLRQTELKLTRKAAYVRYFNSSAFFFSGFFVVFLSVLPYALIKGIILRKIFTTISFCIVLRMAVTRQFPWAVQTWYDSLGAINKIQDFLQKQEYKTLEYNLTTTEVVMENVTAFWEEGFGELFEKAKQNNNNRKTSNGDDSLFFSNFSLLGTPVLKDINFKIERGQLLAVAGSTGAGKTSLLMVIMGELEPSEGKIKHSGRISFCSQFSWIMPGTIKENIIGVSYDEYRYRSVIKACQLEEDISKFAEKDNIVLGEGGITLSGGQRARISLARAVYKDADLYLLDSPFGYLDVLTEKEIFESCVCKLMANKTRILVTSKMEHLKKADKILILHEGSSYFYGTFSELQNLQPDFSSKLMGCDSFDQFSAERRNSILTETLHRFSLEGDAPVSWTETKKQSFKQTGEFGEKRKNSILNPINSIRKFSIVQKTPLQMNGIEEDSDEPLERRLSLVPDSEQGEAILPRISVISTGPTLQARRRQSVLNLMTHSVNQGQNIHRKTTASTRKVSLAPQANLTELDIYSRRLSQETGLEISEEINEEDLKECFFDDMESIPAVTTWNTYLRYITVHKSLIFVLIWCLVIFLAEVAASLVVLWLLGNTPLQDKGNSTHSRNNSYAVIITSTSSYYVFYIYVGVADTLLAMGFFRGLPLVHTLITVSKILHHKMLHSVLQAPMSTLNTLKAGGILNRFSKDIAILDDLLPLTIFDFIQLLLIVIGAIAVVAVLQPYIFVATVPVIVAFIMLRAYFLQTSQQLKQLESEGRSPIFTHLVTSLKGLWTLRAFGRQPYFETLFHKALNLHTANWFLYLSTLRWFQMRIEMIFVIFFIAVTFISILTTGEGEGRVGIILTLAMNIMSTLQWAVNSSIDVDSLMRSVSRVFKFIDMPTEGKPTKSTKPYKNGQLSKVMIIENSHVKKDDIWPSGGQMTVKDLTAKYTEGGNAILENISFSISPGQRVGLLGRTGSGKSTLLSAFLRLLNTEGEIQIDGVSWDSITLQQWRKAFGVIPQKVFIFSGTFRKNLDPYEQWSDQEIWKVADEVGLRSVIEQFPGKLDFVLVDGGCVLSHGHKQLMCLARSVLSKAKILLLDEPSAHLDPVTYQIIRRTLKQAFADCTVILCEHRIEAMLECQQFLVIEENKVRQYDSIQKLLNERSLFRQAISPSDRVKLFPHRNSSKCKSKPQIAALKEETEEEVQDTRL

Structure (SMILES) | EC50 [nM] | Emax [%]
Cc1cc(CCNC(=O)[C@@H]2CC(=O)N(C)[C@@H](CC(C)C)C(=O)N3CCNC[C@@H]3C(=O)N[C@H](Cc3ccccc3)COc3cnc4ccccc4c3C(=O)N2)on1 [Example 727, (9S,13S,19aR,22R)-22-benzyl-13-isobutyl-12-methyl-N-(2-(3-methylisoxazol-5-yl)ethyl)-7,11,14,20-tetraoxo-7,8,9,10,11,12,13,14,17,18,19,19a,20,21,22,23-hexadecahydro-16H-pyrazino[2′,1′:6,7][1]oxa[4,7,10,14]tetraazacycloheptadecino[17,16-c]quinoline-9-carboxamide] | 5050 | 138
COc1cccc(CCNC(=O)[C@@H]2CC(=O)N(C)[C@@H](CC(C)C)C(=O)N3CCN(S(=O)(=O)c4ccccc4)C[C@@H]3C(=O)N[C@H](Cc3ccccc3)COc3ccc4ccccc4c3C(=O)N2)c1 [Example 729, (4aR,7R,18S,22S)-7-benzyl-22-isobutyl-N-(3-methoxyphenethyl)-21-methyl-5,16,20,23-tetraoxo-3-(phenylsulfonyl)-2,3,4,4a,5,6,7,8,16,17,18,19,20,21,22,23-hexadecahydro-1H-naphtho[1,2-p]pyrazino[2,1-f][1]oxa[4,7,10,14]tetraazacycloheptadecine-18-carboxamide] | 100 | 258
COc1cccc(CCNC(=O)[C@@H]2CC(=O)N(C)[C@@H](CC(C)C)C(=O)N3CCN(S(=O)(=O)CCCN4CCOCC4)C[C@@H]3C(=O)N[C@H](Cc3ccccc3)COc3ccc4ccccc4c3C(=O)N2)c1 [Example 730, (4aR,7R,18S,22S)-7-benzyl-22-isobutyl-N-(3-methoxyphenethyl)-21-methyl-3-((3-morpholinopropyl)sulfonyl)-5,16,20,23-tetraoxo-2,3,4,4a,5,6,7,8,16,17,18,19,20,21,22,23-hexadecahydro-1H-naphtho[1,2-p]pyrazino[2,1-f][1]oxa[4,7,10,14]tetraazacycloheptadecine-18-carboxamide] | 593 | 248
COc1cccc(CCNC(=O)[C@@H]2CC(=O)N(C)[C@@H](CC(C)C)C(=O)N3CCN(S(C)(=O)=O)C[C@@H]3C(=O)N[C@H](Cc3ccccc3)COc3ccc4ccccc4c3C(=O)N2)c1 [Example 731, (4aR,7R,18S,22S)-7-benzyl-22-isobutyl-N-(3-methoxyphenethyl)-21-methyl-3-(methylsulfonyl)-5,16,20,23-tetraoxo-2,3,4,4a,5,6,7,8,16,17,18,19,20,21,22,23-hexadecahydro-1H-naphtho[1,2-p]pyrazino[2,1-f][1]oxa[4,7,10,14]tetraazacycloheptadecine-18-carboxamide] | 381 | 248
COc1cccc(CCNC(=O)[C@@H]2CC(=O)N(C)[C@@H](CC(C)C)C(=O)N3CCN(S(=O)(=O)c4cccc(OC(F)(F)F)c4)C[C@@H]3C(=O)N[C@H](Cc3ccccc3)COc3ccc4ccccc4c3C(=O)N2)c1 [Example 732, (4aR,7R,18S,22S)-7-benzyl-22-isobutyl-N-(3-methoxyphenethyl)-21-methyl-5,16,20,23-tetraoxo-3-((3-(trifluoromethoxy)phenyl)sulfonyl)-2,3,4,4a,5,6,7,8,16,17,18,19,20,21,22,23-hexadecahydro-1H-naphtho[1,2-p]pyrazino[2,1-f][1]oxa[4,7,10,14]tetraazacycloheptadecine-18-carboxamide] | 64 | 239
COCCS(=O)(=O)N1CCN2C(=O)[C@H](CC(C)C)N(C)C(=O)C[C@@H](C(=O)NCCc3cccc(OC)c3)NC(=O)c3c(ccc4ccccc34)OC[C@@H](Cc3ccccc3)NC(=O)[C@H]2C1 [Example 733, (4aR,7R,18S,22S)-7-benzyl-22-isobutyl-3-((2-methoxyethyl)sulfonyl)-N-(3-methoxyphenethyl)-21-methyl-5,16,20,23-tetraoxo-2,3,4,4a,5,6,7,8,16,17,18,19,20,21,22,23-hexadecahydro-1H-naphtho[1,2-p]pyrazino[2,1-f][1]oxa[4,7,10,14]tetraazacycloheptadecine-18-carboxamide] | 349 | 235
COc1cccc(CCNC(=O)[C@@H]2CC(=O)N(C)[C@@H](CC(C)C)C(=O)N3CCN(S(=O)(=O)C4CCOCC4)C[C@@H]3C(=O)N[C@H](Cc3ccccc3)COc3ccc4ccccc4c3C(=O)N2)c1 [Example 734, (4aR,7R,18S,22S)-7-benzyl-22-isobutyl-N-(3-methoxyphenethyl)-21-methyl-5,16,20,23-tetraoxo-3-((tetrahydro-2H-pyran-4-yl)sulfonyl)-2,3,4,4a,5,6,7,8,16,17,18,19,20,21,22,23-hexadecahydro-1H-naphtho[1,2-p]pyrazino[2,1-f][1]oxa[4,7,10,14]tetraazacycloheptadecine-18-carboxamide] | 299 | 325
COc1cccc(CCNC(=O)[C@@H]2CC(=O)N(C)[C@@H](CC(C)C)C(=O)N3CCN(S(=O)(=O)CCN(C)C)C[C@@H]3C(=O)N[C@H](Cc3ccccc3)COc3ccc4ccccc4c3C(=O)N2)c1 [Example 735, (4aR,7R,18S,22S)-7-benzyl-3-((2-(dimethylamino)ethyl)sulfonyl)-22-isobutyl-N-(3-methoxyphenethyl)-21-methyl-5,16,20,23-tetraoxo-2,3,4,4a,5,6,7,8,16,17,18,19,20,21,22,23-hexadecahydro-1H-naphtho[1,2-p]pyrazino[2,1-f][1]oxa[4,7,10,14]tetraazacycloheptadecine-18-carboxamide] | 314 | 176
COc1cccc(CCNC(=O)[C@@H]2CC(=O)N(C)[C@@H](CC(C)C)C(=O)N3CCN(S(=O)(=O)Cc4ccccc4)C[C@@H]3C(=O)N[C@H](Cc3ccccc3)COc3ccc4ccccc4c3C(=O)N2)c1 [Example 736, (4aR,7R,18S,22S)-7-benzyl-3-(benzylsulfonyl)-22-isobutyl-N-(3-methoxyphenethyl)-21-methyl-5,16,20,23-tetraoxo-2,3,4,4a,5,6,7,8,16,17,18,19,20,21,22,23-hexadecahydro-1H-naphtho[1,2-p]pyrazino[2,1-f][1]oxa[4,7,10,14]tetraazacycloheptadecine-18-carboxamide] | 153 | 286
COc1cccc(CCNC(=O)[C@@H]2CC(=O)N(C)[C@@H](CC(C)C)C(=O)N3CCN(S(=O)(=O)c4ccc5oc(=O)[nH]c5c4)C[C@@H]3C(=O)N[C@H](Cc3ccccc3)COc3ccc4ccccc4c3C(=O)N2)c1 [Example 737, (4aR,7R,18S,22S)-7-benzyl-22-isobutyl-N-(3-methoxyphenethyl)-21-methyl-5,16,20,23-tetraoxo-3-((2-oxo-2,3-dihydrobenzo[d]oxazol-5-yl)sulfonyl)-2,3,4,4a,5,6,7,8,16,17,18,19,20,21,22,23-hexadecahydro-1H-naphtho[1,2-p]pyrazino[2,1-f][1]oxa[4,7,10,14]tetraazacycloheptadecine-18-carboxamide] | 665 | 298
COc1cccc(CCNC(=O)[C@@H]2CC(=O)N(C)[C@@H](CC(C)C)C(=O)N3CCN(S(=O)(=O)Cc4cccc5cccnc45)C[C@@H]3C(=O)N[C@H](Cc3ccccc3)COc3ccc4ccccc4c3C(=O)N2)c1 [Example 738, (4aR,7R,18S,22S)-7-benzyl-22-isobutyl-N-(3-methoxyphenethyl)-21-methyl-5,16,20,23-tetraoxo-3-((quinolin-8-ylmethyl)sulfonyl)-2,3,4,4a,5,6,7,8,16,17,18,19,20,21,22,23-hexadecahydro-1H-naphtho[1,2-p]pyrazino[2,1-f][1]oxa[4,7,10,14]tetraazacycloheptadecine-18-carboxamide] | 110 | 256
